In publication PMC9181698 (International Journal of Molecular Sciences, 2022):

Assays:
[1] = tested on: ACE2–RBD interaction (Omicron variant RBD-Fc / His-tagged hACE2); format: biochemical, SARS-CoV-2; details: read-out: Inhibition of ACE2–RBD Interaction
[2] = tested on: SIV pseudotyped with the SARS-CoV-2 spike protein (wt); details: SIV pseudotyped with the spike protein (wt, 48 h)
[3] = tested on: SIV pseudotyped with the SARS-CoV-2 spike protein (Alpha); details: SIV pseudotyped with the spike protein (Alpha, 48 h)
[4] = tested on: SIV pseudotyped with the SARS-CoV-2 spike protein (Beta); details: SIV pseudotyped with the spike protein (Beta, 48 h)
[5] = tested on: SIV pseudotyped with the SARS-CoV-2 spike protein (Delta); details: SIV pseudotyped with the spike protein (Delta, 48 h)
[6] = tested on: SIV pseudotyped with the SARS-CoV-2 spike protein (Omicron); details: SIV pseudotyped with the spike protein (Omicron, 48 h)
[7] = tested on: pseudovirus with wt SARS-CoV-2 spike carrying E484K + N501Y
[8] = tested on: pseudovirus with wt SARS-CoV-2 spike carrying K417N

SMILES | IC50 [1] [nM] | IC50 [2] [nM] | IC50 [3] [nM] | IC50 [4] [nM] | IC50 [5] [nM] | IC50 [6] [nM] | Reduction in inhibitory activity (virus neutralization) by combination of E484K and N501N [7] | Decrease of susceptibility of the virus to inhibition by mutation K417N, factor [8]
CC[C@H](C)[C@H](NC(=O)[C@H](CC(C)C)NC(=O)[C@H](CC(=O)O)NC(=O)[C@H](CO)NC(=O)[C@@H](NC(=O)[C@H](CCCNC(=N)N)NC(=O)[C@H](CCSC)NC(=O)[C@H](CO)NC(=O)[C@H](C)NC(=O)[C@H](CCC(=O)O)NC(=O)[C@H](C)NC(=O)[C@H](Cc1c[nH]cn1)NC(=O)CNC(=O)[C@H](CC(C)C)NC(=O)[C@H](CCC(=O)O)NC(=O)[C@H](CC(=O)O)NC(=O)[C@H](CC(C)C)NC(=O)[C@H](CC(C)C)NC(=O)[C@H](CCCNC(=N)N)NC(=O)[C@H](CCSC)NC(=O)[C@@H](NC(=O)[C@H](CCC(=O)O)NC(=O)[C@H](Cc1ccc(O)cc1)NC(=O)[C@@H](NC(=O)[C@H](CCCCN)NC(=O)[C@H](CCC(N)=O)NC(=O)[C@H](CC(C)C)NC(=O)[C@@H](NC(=O)[C@H](Cc1c[nH]c2ccccc12)NC(=O)[C@H](CCC(=O)O)NC(=O)[C@H](CCCCN)NC(=O)[C@H](CC(=O)O)NC(=O)COCCOCCNC(=O)CCCC[C@@H]1SC[C@@H]2NC(=O)N[C@@H]21)[C@@H](C)CC)[C@@H](C)CC)[C@@H](C)CC)C(C)C)C(=O)N[C@@H](Cc1ccc(O)cc1)C(=O)N[C@@H](CCC(=O)O)C(=O)N[C@@H](Cc1ccccc1)C(=O)N[C@@H](CCSC)C(=O)N[C@@H](CCCCN)C(=O)N[C@@H](CCCCN)C(=O)NCC(N)=O [LW25.1] | […] | 1.7 ± 0.11 | 8.38 ± 3.31 | > 500 | 0.71 ± 0.23 | > 500 | – | –
CC[C@H](C)[C@H](NC(=O)[C@H](CC(C)C)NC(=O)[C@H](CC(=O)O)NC(=O)[C@H](CO)NC(=O)[C@@H](NC(=O)[C@H](CCCNC(=N)N)NC(=O)[C@H](CCSC)NC(=O)[C@H](CO)NC(=O)[C@H](C)NC(=O)[C@H](CCC(=O)O)NC(=O)[C@H](C)NC(=O)[C@H](Cc1c[nH]cn1)NC(=O)CNC(=O)[C@H](CC(C)C)NC(=O)[C@H](CCC(=O)O)NC(=O)[C@H](CC(=O)O)NC(=O)[C@H](CC(C)C)NC(=O)[C@H](CC(C)C)NC(=O)[C@H](CCCNC(=N)N)NC(=O)[C@H](CCSC)NC(=O)[C@@H](NC(=O)[C@H](CCC(=O)O)NC(=O)[C@H](Cc1ccc(O)cc1)NC(=O)[C@@H](NC(=O)[C@H](CCCCN)NC(=O)[C@H](CCC(N)=O)NC(=O)[C@H](CC(C)C)NC(=O)[C@@H](NC(=O)[C@H](Cc1c[nH]c2ccccc12)NC(=O)[C@H](CCC(=O)O)NC(=O)[C@H](CCCCN)NC(=O)[C@H](CC(=O)O)NC(=O)COCCOCCNC(=O)COCCOCCNC(=O)CCCC[C@@H]1SC[C@@H]2NC(=O)N[C@@H]21)[C@@H](C)CC)[C@@H](C)CC)[C@@H](C)CC)C(C)C)C(=O)N[C@@H](Cc1ccc(O)cc1)C(=O)N[C@@H](CCC(=O)O)C(=O)N[C@@H](Cc1ccccc1)C(=O)N[C@@H](CCSC)C(=O)N[C@@H](CCCCN)C(=O)N[C@@H](CCCCN)C(=O)NCC(=O)N[C@@H](CC(=O)O)C(=O)N[C@@H](CCC(=O)O)C(=O)N[C@@H](CCCNC(=N)N)C(=O)N[C@@H](CC(C)C)C(=O)N[C@@H](CC(C)C)C(=O)N[C@@H](CCC(=O)O)C(=O)N[C@@H](CCC(=O)O)C(=O)N[C@@H](C)C(=O)N[C@@H](CCC(=O)O)C(=O)N[C@@H](CCCNC(=N)N)C(=O)N[C@@H](CC(C)C)C(=O)N[C@@H](CC(C)C)C(=O)N[C@@H](CCC(=O)O)C(=O)N[C@@H](CCC(=O)O)C(=O)N[C@H](C(=O)N[C@@H](CCC(=O)O)C(N)=O)C(C)C [LW25.3] | – | 5.94 ± 4.17 | 13.3 ± 4.55 | > 500 | 4.52 ± 0.43 | > 500 | – | –
CC[C@H](C)[C@@H]1NC(=O)[C@H](CC(C)C)NC(=O)[C@H](CC(=O)O)NC(=O)[C@H](CO)NC(=O)[C@H](C(C)C)NC(=O)[C@H](CCCNC(=N)N)NC(=O)[C@H](CCSC)NC(=O)[C@H](CO)NC(=O)[C@H](C)NC(=O)[C@H](CCC(=O)O)NC(=O)[C@H](C)NC(=O)[C@H](Cc2c[nH]cn2)NC(=O)CNC(=O)[C@H](CC(C)C)NC(=O)[C@H](CCC(=O)O)NC(=O)[C@H](CC(=O)O)NC(=O)[C@H](CC(C)C)NC(=O)[C@H](CC(C)C)NC(=O)[C@H](CCCNC(=N)N)NC(=O)[C@H](CCSC)NC(=O)[C@H]([C@@H](C)CC)NC(=O)[C@H](CCC(=O)O)NC(=O)[C@H](Cc2ccc(O)cc2)NC(=O)[C@H]([C@@H](C)CC)NC(=O)[C@H](CCCCN)NC(=O)[C@H](CCC(N)=O)NC(=O)[C@H](CC(C)C)NC(=O)[C@H]([C@@H](C)CC)NC(=O)[C@H](Cc2c[nH]c3ccccc23)NC(=O)[C@H](CCC(=O)O)NC(=O)[C@@H](NC(=O)COCCOCCNC(=O)CCCC[C@@H]2SC[C@@H]3NC(=O)N[C@@H]32)CSSC[C@@H](C(N)=O)NC(=O)[C@H](CCCCN)NC(=O)[C@H](CCCCN)NC(=O)[C@H](CCSC)NC(=O)[C@H](Cc2ccccc2)NC(=O)[C@H](CCC(=O)O)NC(=O)[C@H](Cc2ccc(O)cc2)NC1=O [LW25.13] | […] | 0.63 ± 0.24 | 1.35 ± 0.08 | > 500 | 0.68 ± 0.12 | > 500 | approximately three | –
CC[C@H](C)[C@H](NC(=O)[C@H](CC(C)C)NC(=O)[C@H](CC(=O)O)NC(=O)[C@H](CO)NC(=O)[C@@H](NC(=O)[C@H](CCCNC(=N)N)NC(=O)[C@H](CCSC)NC(=O)[C@H](CO)NC(=O)[C@H](C)NC(=O)[C@H](CCC(=O)O)NC(=O)[C@H](C)NC(=O)[C@H](Cc1c[nH]cn1)NC(=O)CNC(=O)[C@H](CC(C)C)NC(=O)[C@H](CCC(=O)O)NC(=O)[C@H](CC(=O)O)NC(=O)[C@H](CC(C)C)NC(=O)[C@H](CC(C)C)NC(=O)[C@H](CCCNC(=N)N)NC(=O)[C@H](CCSC)NC(=O)[C@@H](NC(=O)[C@H](CCC(=O)O)NC(=O)[C@H](Cc1ccc(O)cc1)NC(=O)[C@@H](NC(=O)[C@H](CCCCN)NC(=O)[C@H](CCC(N)=O)NC(=O)[C@H](CC(C)C)NC(=O)[C@@H](NC(=O)[C@H](Cc1c[nH]c2ccccc12)NC(=O)[C@H](CCC(=O)O)NC(=O)[C@H](CCCCN)NC(=O)[C@H](CC(=O)O)NC(=O)COCCOCCNC(=O)CCCC[C@@H]1SC[C@@H]2NC(=O)N[C@@H]21)[C@@H](C)CC)[C@@H](C)CC)[C@@H](C)CC)C(C)C)C(=O)N[C@@H](Cc1ccc(O)cc1)C(=O)N[C@@H](CCC(=O)O)C(=O)N[C@@H](Cc1ccccc1)C(=O)N[C@@H](CCSC)C(=O)N[C@@H](CCCCN)C(N)=O [LW32.2] | […] | 0.93 ± 0.24 | 6.15 ± 5.96 | > 500 | 1.54 ± 0.23 | > 500 | nine | 25
CC[C@H](C)[C@H](NC(=O)[C@H](CC(C)C)NC(=O)[C@H](CC(=O)O)NC(=O)[C@H](CO)NC(=O)[C@@H](NC(=O)[C@H](CCCNC(=N)N)NC(=O)[C@H](CCSC)NC(=O)[C@H](CO)NC(=O)[C@H](C)NC(=O)[C@H](CCC(=O)O)NC(=O)[C@H](C)NC(=O)[C@H](Cc1c[nH]cn1)NC(=O)CNC(=O)[C@H](CC(C)C)NC(=O)[C@H](CCC(=O)O)NC(=O)[C@H](CC(=O)O)NC(=O)[C@H](CC(C)C)NC(=O)[C@H](CC(C)C)NC(=O)[C@H](CCCNC(=N)N)NC(=O)[C@H](CCSC)NC(=O)[C@@H](NC(=O)[C@H](CCC(=O)O)NC(=O)[C@H](Cc1ccc(O)cc1)NC(=O)[C@@H](NC(=O)[C@H](CCCCN)NC(=O)[C@H](CCC(N)=O)NC(=O)[C@H](CC(C)C)NC(=O)[C@@H](NC(=O)[C@H](Cc1c[nH]c2ccccc12)NC(=O)[C@H](CCC(=O)O)NC(=O)[C@H](CCCCN)NC(=O)[C@H](CC(=O)O)NC(=O)COCCOCCNC(=O)CCCC[C@@H]1SC[C@@H]2NC(=O)N[C@@H]21)[C@@H](C)CC)[C@@H](C)CC)[C@@H](C)CC)C(C)C)C(=O)N[C@@H](Cc1ccc(O)cc1)C(=O)N[C@@H](CCC(=O)O)C(=O)N[C@@H](Cc1ccccc1)C(N)=O [LW32.4] | […] | 11.8 ± 3.5 | > 500 | > 500 | 10.2 ± 1.78 | > 500 | – | –
